“And” between values parts separate entries of the source, which are not always exact repeats. Equal values may be shown once. Toxic doses and inconclusive results are not listed. Rule for the calls: active = survival T/C of 150% or more; inactive = T/C below 125% in these data.
System: P388 leukemia ip, CD2F1 mice, survival T/C
Experiment: NCI In Vivo Anticancer Drug Screen. Data for tumor model P388 Leukemia (intraperitoneal) in CD2F1 (CDF1) mice
Conditions: endpoint: median survival time, higher = longer survival
How it was run: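 Mice carrying the transplanted tumor received test compound or vehicle. Survival was recorded in each group, and the value is the treated-group measurement divided by that of the vehicle-treated control group.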

[1] = dose: 50.0 mg/kg/injection, schedule: Q01DX005 (ip), vehicle: saline with Tween-80
[2] = dose: 100.0 mg/kg/injection, schedule: Q01DX005 (ip), vehicle: saline with Tween-80

Measured: T/C

CCOP(O)(=S)OCC.[Fe]
inactive: dose: 25.0 mg/kg/injection, schedule: Q01DX001 (ip), vehicle: saline with Tween-80 89 % of control | dose: 33.0 mg/kg/injection, schedule: Q01DX001 (ip), vehicle: saline with Tween-80 96 % of control | dose: 50.0 mg/kg/injection, schedule: Q01DX001 (ip), vehicle: saline with Tween-80 94 % of control | dose: 50.0 mg/kg/injection, schedule: Q04DX003 (ip), vehicle: saline 97 % of control | dose: 75.0 mg/kg/injection, schedule: Q01DX001 (ip), vehicle: saline with Tween-80 90 % of control and 95 % of control | dose: 100.0 mg/kg/injection, schedule: Q01DX001 (ip), vehicle: saline with Tween-80 90 % of control | dose: 100.0 mg/kg/injection, schedule: Q04DX003 (ip), vehicle: saline 101 % of control | dose: 200.0 mg/kg/injection, schedule: Q04DX003 (ip), vehicle: saline 100 % of control | dose: 400.0 mg/kg/injection, schedule: Q04DX003 (ip), vehicle: saline 90 % of control

c1cc[c]([Sn]([O][Sn]([c]2ccccc2)([c]2ccccc2)[c]2ccccc2)([c]2ccccc2)[c]2ccccc2)cc1
inactive: dose: 0.38 mg/kg/injection, schedule: Q04DX003 (ip), vehicle: saline 110 % of control | dose: 0.75 mg/kg/injection, schedule: Q04DX003 (ip), vehicle: saline 113 % of control | dose: 1.5 mg/kg/injection, schedule: Q04DX003 (ip), vehicle: saline 98 % of control | dose: 3.13 mg/kg/injection, schedule: Q04DX003 (ip), vehicle: Klucel (hydroxypropylcellulose) (HPC) 90 % of control | dose: 6.25 mg/kg/injection, schedule: Q04DX003 (ip), vehicle: saline with Tween-80 105 % of control

CCOC(=O)CC(C)=N
inactive: dose: 25.0 mg/kg/injection, schedule: Q01DX009 (ip), vehicle: saline with Tween-80 112 % of control | dose: 50.0 mg/kg/injection, schedule: Q01DX009 (ip), vehicle: saline with Tween-80 99 % of control and 110 % of control and 114 % of control | dose: 100.0 mg/kg/injection, schedule: Q01DX009 (ip), vehicle: saline with Tween-80 106 % of control and 107 % of control and 113 % of control | dose: 200.0 mg/kg/injection, schedule: Q01DX009 (ip), vehicle: saline with Tween-80 103 % of control and 109 % of control and 123 % of control | dose: 400.0 mg/kg/injection, schedule: Q01DX009 (ip), vehicle: saline with Tween-80 103 % of control and 105 % of control

CC1(C)OC2C3COC(O3)C(O)C2O1 (configuration not stated)
inactive: dose: 100.0 mg/kg/injection, schedule: Q01DX001 (ip), vehicle: saline 107 % of control | dose: 200.0 mg/kg/injection, schedule: Q01DX001 (ip), vehicle: saline 98 % of control | dose: 400.0 mg/kg/injection, schedule: Q01DX001 (ip), vehicle: saline 112 % of control

CC(C)(C)c1ccc(OP(=S)(NN)Oc2ccc(C(C)(C)C)cc2)cc1
inactive: dose: 50.0 mg/kg/injection, schedule: Q01DX009 (ip), vehicle: Klucel (hydroxypropylcellulose) (HPC) 98 % of control | dose: 100.0 mg/kg/injection, schedule: Q01DX009 (ip), vehicle: Klucel (hydroxypropylcellulose) (HPC) 102 % of control | dose: 200.0 mg/kg/injection, schedule: Q01DX009 (ip), vehicle: Klucel (hydroxypropylcellulose) (HPC) 94 % of control

C[N+](C)(C)CC(O)c1ccc(O)c(O)c1 (configuration not stated)
inactive: dose: 6.25 mg/kg/injection, schedule: Q01DX009 (ip), vehicle: saline 113 % of control | dose: 12.5 mg/kg/injection, schedule: Q01DX009 (ip), vehicle: saline 100 % of control | dose: 25.0 mg/kg/injection, schedule: Q01DX009 (ip), vehicle: saline 97 % of control | dose: 50.0 mg/kg/injection, schedule: Q01DX009 (ip), vehicle: saline 100 % of control

O=c1[nH]ncn2nc3ccccc3c12
inactive: [1] 100 % of control | [2] 100 % of control | dose: 200.0 mg/kg/injection, schedule: Q01DX005 (ip), vehicle: saline with Tween-80 104 % of control

Cc1ccccc1N=C(CCl)Nc1ccccc1C
inactive: [1] 94 % of control | [2] 99 % of control

CCCOc1cccc2c1C(=O)c1c(O)c3c(c(O)c1C2=O)C[C@@](O)(C(C)=O)C[C@@H]3OC1CC(N)C(O)C(C)O1 (some centres not stated)
inactive: dose: 3.13 mg/kg/injection, schedule: Q04DX003 (ip), vehicle: water 105 % of control | dose: 6.25 mg/kg/injection, schedule: Q04DX003 (ip), vehicle: water 121 % of control | dose: 12.5 mg/kg/injection, schedule: Q04DX003 (ip), vehicle: water 121 % of control

CC(C)N[P+](c1ccccc1)(c1ccccc1)c1ccccc1
inactive: dose: 25.0 mg/kg/injection, schedule: Q04DX003 (ip), vehicle: saline 96 % of control

CC(C)c1cc(C(=O)O)c(O)c(C(C)C)c1.CC(C)c1cc(C(=O)O)c(O)c(C(C)C)c1.[Mn]
inactive: dose: 15.0 mg/kg/injection, schedule: Q01DX005 (ip), vehicle: Klucel (hydroxypropylcellulose) (HPC) 104 % of control and 106 % of control | dose: 15.0 mg/kg/injection, schedule: Q01DX005 (ip), vehicle: other 101 % of control | dose: 30.0 mg/kg/injection, schedule: Q01DX005 (ip), vehicle: Klucel (hydroxypropylcellulose) (HPC) 110 % of control and 114 % of control | dose: 30.0 mg/kg/injection, schedule: Q01DX005 (ip), vehicle: other 105 % of control and 109 % of control | dose: 60.0 mg/kg/injection, schedule: Q01DX005 (ip), vehicle: Klucel (hydroxypropylcellulose) (HPC) 116 % of control and 117 % of control and 120 % of control | dose: 60.0 mg/kg/injection, schedule: Q01DX005 (ip), vehicle: other 114 % of control and 95 % of control | dose: 120.0 mg/kg/injection, schedule: Q01DX005 (ip), vehicle: Klucel (hydroxypropylcellulose) (HPC) 112 % of control and 116 % of control | dose: 120.0 mg/kg/injection, schedule: Q01DX005 (ip), vehicle: other 114 % of control and 87 % of control | dose: 240.0 mg/kg/injection, schedule: Q01DX005 (ip), vehicle: other 100 % of control

COC(=O)C1=C(C(=O)OC)C2CC3C4CC=C5CC(OC(C)=O)CCC5(C)C4CCC3(C)C2=C(OC(C)=O)C1 (configuration not stated)
inactive: [1] 90 % of control | [2] 87 % of control

c1ccc(C(c2ccccc2)[P+](c2ccccc2)(c2ccccc2)c2ccccc2)cc1
inactive: dose: 0.15 mg/kg/injection, schedule: Q01DX009 (ip), vehicle: Klucel (hydroxypropylcellulose) (HPC) 101 % of control | dose: 0.31 mg/kg/injection, schedule: Q01DX009 (ip), vehicle: Klucel (hydroxypropylcellulose) (HPC) 109 % of control and 114 % of control | dose: 0.63 mg/kg/injection, schedule: Q01DX009 (ip), vehicle: Klucel (hydroxypropylcellulose) (HPC) 111 % of control | dose: 1.25 mg/kg/injection, schedule: Q01DX009 (ip), vehicle: Klucel (hydroxypropylcellulose) (HPC) 118 % of control and 123 % of control and 86 % of control

O=c1[nH]cncc1CCC1OCCO1
inactive: dose: 60.0 mg/kg/injection, schedule: Q01DX005 (ip), vehicle: saline 97 % of control | dose: 120.0 mg/kg/injection, schedule: Q01DX005 (ip), vehicle: saline 98 % of control | dose: 240.0 mg/kg/injection, schedule: Q01DX005 (ip), vehicle: saline 103 % of control

NC(=O)c1n[nH][nH]c1=O
inactive: dose: 50.0 mg/kg/injection, schedule: Q01DX005 (ip), vehicle: saline 115 % of control | dose: 100.0 mg/kg/injection, schedule: Q01DX005 (ip), vehicle: saline 105 % of control | dose: 200.0 mg/kg/injection, schedule: Q01DX005 (ip), vehicle: saline 115 % of control

O=c1oc2c(cc1Cl)CCCC2
inactive: dose: 50.0 mg/kg/injection, schedule: Q01DX005 (ip), vehicle: Klucel (hydroxypropylcellulose) (HPC) 96 % of control | dose: 100.0 mg/kg/injection, schedule: Q01DX005 (ip), vehicle: Klucel (hydroxypropylcellulose) (HPC) 101 % of control | dose: 200.0 mg/kg/injection, schedule: Q01DX005 (ip), vehicle: Klucel (hydroxypropylcellulose) (HPC) 103 % of control

[Cu+2].[O-]c1ccccc1C=NCC(O)CN=Cc1ccccc1[O-] (configuration not stated)
inactive: dose: 3.75 mg/kg/injection, schedule: Q01DX005 (ip), vehicle: saline with Tween-80 97 % of control | dose: 7.5 mg/kg/injection, schedule: Q01DX005 (ip), vehicle: saline with Tween-80 104 % of control

C=CCn1/c(=N\NC(=O)c2ccncc2)sc2ccccc21
inactive: dose: 6.25 mg/kg/injection, schedule: Q01DX009 (ip), vehicle: Klucel (hydroxypropylcellulose) (HPC) 114 % of control | dose: 12.5 mg/kg/injection, schedule: Q01DX009 (ip), vehicle: Klucel (hydroxypropylcellulose) (HPC) 100 % of control | dose: 25.0 mg/kg/injection, schedule: Q01DX009 (ip), vehicle: Klucel (hydroxypropylcellulose) (HPC) 103 % of control

Reference: PubChem BioAssay AID330 (DTP/NCI, 2004)
